Experimental data as given in ChEMBL document CHEMBL3885881, “DrugMatrix”.

Species on record: Rattus norvegicus
Experiment: DrugMatrix - Regimen: Daily Repeat
Assay type: toxicity, organism-based, Sprague-Dawley
Design: regimen Daily Repeat, gender Male, age 6-8 weeks
Conditions: in vivo, route none, vehicle 100 % UNTREATED; for BASOPHIL / ERYTHROCYTE COUNT / HEMATOCRIT / HEMOGLOBIN / LEUKOCYTE COUNT / LYMPHOCYTE / MEAN CORPUSCULAR HEMOGLOBIN / MEAN CORPUSCULAR HEMOGLOBIN CONCENTRATION / MONOCYTE / NEUTROPHIL / NUCLEATED RED BLOOD CELLS / PLATELET COUNT / ABSOLUTE BASOPHIL / ABSOLUTE EOSINOPHIL / ABSOLUTE LYMPHOCYTE / ABSOLUTE MONOCYTE / ABSOLUTE SEGMENTED NEUTROPHIL / EOSINOPHIL / MEAN CORPUSCULAR VOLUME: tissue Blood
[1] = 60 mg/kg, 120 h, dose level M1, time 5 day
[2] = 60 mg/kg, 120 h, tissue Plasma, dose level M1, time 5 day
[3] = 60 mg/kg, […], dose level M1, time 14 day
[4] = 60 mg/kg, […], tissue Plasma, dose level M1, time 14 day
[5] = 75 mg/kg, 120 h, dose level High, time 5 day
[6] = 75 mg/kg, 120 h, tissue Plasma, dose level High, time 5 day
[7] = 75 mg/kg, […], dose level High, time 14 day
[8] = 75 mg/kg, […], tissue Plasma, dose level High, time 14 day

Substance: Diet_Restriction
- BASOPHIL [1]: 0%
- ERYTHROCYTE COUNT [1]: 5.22 x10E6/uL
- HEMATOCRIT [1]: 32.2%
- HEMOGLOBIN [1]: 11.93 G/DL
- LEUKOCYTE COUNT [1]: 4.3 x10E3/uL
- LYMPHOCYTE [1]: 87.33%
- MEAN CORPUSCULAR HEMOGLOBIN [1]: 22.9 pg
- MEAN CORPUSCULAR HEMOGLOBIN CONCENTRATION [1]: 37.1 G/DL
- MONOCYTE [1]: 0.67%
- NEUTROPHIL [1]: 10.67%
- NUCLEATED RED BLOOD CELLS [1]: 0 /100WBC
- PLATELET COUNT [1]: 765.33 x10E3/uL
- ALANINE AMINOTRANSFERASE [2]: 32.33 u/L
- ALBUMIN [2]: 4.3 G/DL
- ALKALINE PHOSPHATASE [2]: 267.33 u/L
- ASPARTATE AMINOTRANSFERASE [2]: 64.33 u/L
- BLOOD UREA NITROGEN [2]: 6.33 mg/dL
- CARBON DIOXIDE [2]: 31.33 mmol/L
- CHOLESTEROL [2]: 52 mg/dL
- CREATINE PHOSPHOKINASE [2]: 263 u/L
- CREATININE [2]: 0.14 mg/dL
- GLUCOSE [2]: 137.33 mg/dL
- LACTATE DEHYDROGENASE [2]: 96 u/L
- PHOSPHORUS [2]: 10.27 mg/dL
- POTASSIUM [2]: 5.6 MEQ/L
- TOTAL BILIRUBIN [2]: 0.1 mg/dL
- TOTAL PROTEIN [2]: 5.93 G/DL
- ABSOLUTE BASOPHIL [3]: 0 CELLS/uL
- ABSOLUTE EOSINOPHIL [3]: 64 CELLS/uL
- ABSOLUTE LYMPHOCYTE [3]: 14236 CELLS/uL
- ABSOLUTE MONOCYTE [3]: 39.33 CELLS/uL
- ABSOLUTE SEGMENTED NEUTROPHIL [3]: 894 CELLS/uL
- BASOPHIL [3]: 0%
- EOSINOPHIL [3]: 0.33%
- ERYTHROCYTE COUNT [3]: 6.6 x10E6/uL
- HEMATOCRIT [3]: 37.43%
- LEUKOCYTE COUNT [3]: 15.23 x10E3/uL
- LYMPHOCYTE [3]: 92.67%
- MEAN CORPUSCULAR HEMOGLOBIN [3]: 21.37 pg
- MEAN CORPUSCULAR HEMOGLOBIN CONCENTRATION [3]: 37.67 G/DL
- MEAN CORPUSCULAR VOLUME [3]: 56.73 fL
- MONOCYTE [3]: 0.33%
- NEUTROPHIL [3]: 6.67%
- NUCLEATED RED BLOOD CELLS [3]: 0 /100WBC
- PLATELET COUNT [3]: 800.67 x10E3/uL
- ALANINE AMINOTRANSFERASE [4]: 47 u/L
- ALBUMIN [4]: 4.4 G/DL
- ALKALINE PHOSPHATASE [4]: 256 u/L
- ASPARTATE AMINOTRANSFERASE [4]: 114.33 u/L
- BLOOD UREA NITROGEN [4]: 15 mg/dL
- CARBON DIOXIDE [4]: 25 mmol/L
- CHOLESTEROL [4]: 65 mg/dL
- CREATINE PHOSPHOKINASE [4]: 1426.33 u/L
- CREATININE [4]: 0.23 mg/dL
- GLUCOSE [4]: 165.33 mg/dL
- LACTATE DEHYDROGENASE [4]: 131.33 u/L
- LIPASE [4]: 12 u/L
- PHOSPHORUS [4]: 11.63 mg/dL
- POTASSIUM [4]: 5.69 MEQ/L
- TOTAL BILIRUBIN [4]: 0.17 mg/dL
- TOTAL PROTEIN [4]: 6.17 G/DL
- ABSOLUTE BASOPHIL [5]: 0 CELLS/uL
- ABSOLUTE EOSINOPHIL [5]: 35.33 CELLS/uL
- ABSOLUTE LYMPHOCYTE [5]: 3939.33 CELLS/uL
- ABSOLUTE MONOCYTE [5]: 67.67 CELLS/uL
- ABSOLUTE SEGMENTED NEUTROPHIL [5]: 957.67 CELLS/uL
- BASOPHIL [5]: 0%
- EOSINOPHIL [5]: 0.67%
- ERYTHROCYTE COUNT [5]: 5.54 x10E6/uL
- HEMATOCRIT [5]: 33.63%
- HEMOGLOBIN [5]: 12.8 G/DL
- LEUKOCYTE COUNT [5]: 5 x10E3/uL
- LYMPHOCYTE [5]: 79%
- MEAN CORPUSCULAR HEMOGLOBIN [5]: 23.13 pg
- MEAN CORPUSCULAR HEMOGLOBIN CONCENTRATION [5]: 38.07 G/DL
- NEUTROPHIL [5]: 19%
- NUCLEATED RED BLOOD CELLS [5]: 0 /100WBC
- PLATELET COUNT [5]: 1074.67 x10E3/uL
- ALANINE AMINOTRANSFERASE [6]: 49.33 u/L
- ALBUMIN [6]: 4.3 G/DL
- ALKALINE PHOSPHATASE [6]: 317.33 u/L
- ASPARTATE AMINOTRANSFERASE [6]: 72 u/L
- BLOOD UREA NITROGEN [6]: 9.33 mg/dL
- CARBON DIOXIDE [6]: 35 mmol/L
- CHOLESTEROL [6]: 65.67 mg/dL
- CREATINE PHOSPHOKINASE [6]: 288.33 u/L
- CREATININE [6]: 0.15 mg/dL
- GLUCOSE [6]: 136.33 mg/dL
- LACTATE DEHYDROGENASE [6]: 95.67 u/L
- PHOSPHORUS [6]: 11.33 mg/dL
- POTASSIUM [6]: 6.01 MEQ/L
- SODIUM [6]: 146.17 MEQ/L
- TOTAL BILIRUBIN [6]: 0.1 mg/dL
- TOTAL PROTEIN [6]: 6.23 G/DL
- URIC ACID [6]: 1 mg/dL
- ABSOLUTE BASOPHIL [7]: 0 CELLS/uL
- ABSOLUTE EOSINOPHIL [7]: 0 CELLS/uL
- ABSOLUTE LYMPHOCYTE [7]: 13779.33 CELLS/uL
- ABSOLUTE MONOCYTE [7]: 115 CELLS/uL
- ABSOLUTE SEGMENTED NEUTROPHIL [7]: 2472.33 CELLS/uL
- BASOPHIL [7]: 0%
- EOSINOPHIL [7]: 0%
- ERYTHROCYTE COUNT [7]: 6.39 x10E6/uL
- HEMATOCRIT [7]: 35.97%
- HEMOGLOBIN [7]: 13.47 G/DL
- LEUKOCYTE COUNT [7]: 16.37 x10E3/uL
- LYMPHOCYTE [7]: 84.33%
- MEAN CORPUSCULAR HEMOGLOBIN [7]: 21.13 pg
- MEAN CORPUSCULAR HEMOGLOBIN CONCENTRATION [7]: 37.47 G/DL
- MEAN CORPUSCULAR VOLUME [7]: 56.37 fL
- MONOCYTE [7]: 0.67%
- NEUTROPHIL [7]: 15%
- NUCLEATED RED BLOOD CELLS [7]: 0 /100WBC
- PLATELET COUNT [7]: 941 x10E3/uL
- ALANINE AMINOTRANSFERASE [8]: 51 u/L
- ALKALINE PHOSPHATASE [8]: 319.33 u/L
- ASPARTATE AMINOTRANSFERASE [8]: 77.33 u/L
- BLOOD UREA NITROGEN [8]: 14 mg/dL
- CHLORIDE [8]: 99.67 MEQ/L
- CHOLESTEROL [8]: 64.33 mg/dL
- CREATINE PHOSPHOKINASE [8]: 271.33 u/L
- CREATININE [8]: 0.23 mg/dL
- GLUCOSE [8]: 175 mg/dL
- LACTATE DEHYDROGENASE [8]: 113 u/L
- LIPASE [8]: 20.33 u/L
- PHOSPHORUS [8]: 12.13 mg/dL
- POTASSIUM [8]: 5.75 MEQ/L
- TOTAL BILIRUBIN [8]: 0.13 mg/dL
- TOTAL PROTEIN [8]: 6.1 G/DL
- URIC ACID [8]: 1.3 mg/dL
